Laboratory results taken from US20180133190A1, “MONOACYLGLYCEROLS AND FAT-SOLUBLE NUTRIENTS FOR USE IN THE TREATMENT OF NUTRIENT DEFICIENCY FROM MALDIGESTION” (NESTEC S.A., priority 2013, published 2018).

Legend:
[1] = lipid maldigestion or malabsorption rat model (XENICAL-induced): EPA level in red blood cell lipids; type: in vivo, rats
Description: The concept was tested in a lipid maldigestion or malabsorption rat model. The maldigestion or malabsorption condition was obtained using XENICAL® (ORLISTAT), a pancreatic and gastric lipases inhibitor (tetrahydrolipstatin; see FIG. 7). Rats were fed during 21 days with long-chain polyunsaturated fatty acid (LC-PUFA) supplements containing mainly eicosapentaenoic (EPA) acid. Fish oil was used as a source of triacylglycerols, and different EPA glycerides were evaluated. XENICAL® (ORLISTAT) was given at a level sufficient to decrease lipid absorption by 40%. A group receiving fish oil without XENICAL® (ORLISTAT) was used as a positive control. At different time intervals (D3, D7, […]), the fatty acid profiles of red blood cell and plasma lipids were determined. At the end of the experiment, the fatty acid profiles of different tissues were determined. The main objective was to follow the level of EPA in red blood cell and plasma lipids. The main comparison evaluated was the difference in EPA level between the group receiving EPA-containing sn-1(3) MAG in combination with XENICAL® (ORLISTAT) and the positive control group (fish oil+XENICAL® (ORLISTAT)). […] This comparison corroborates the validity of the model.

[2] = clinical study: delivery of EPA under lipid maldigestion conditions induced by XENICAL (ORLISTAT); type: in vivo, humans
Description: This clinical study compared the efficacy of sn-1(3) MAG and fish oil (TAG) in delivering EPA in humans under lipid maldigestion conditions induced by XENICAL® (ORLISTAT). The comparison was tested in volunteers having a BMI of 37-40 kg/m2 and treated with XENICAL® (ORLISTAT) to induce lipid maldigestion or not treated with XENICAL® (ORLISTAT). The primary objective was to assess accretion of EPA in erythrocytes over 21 days when consumed as fish oil (TAG) or sn-1(3) MAG. The secondary objectives were to assess accretion of EPA in plasma over 21 days and also to assess the pharmacokinetics of EPA after an acute dose either in the form of sn-1(3) MAG or TAG (AUC in chylomicrons over 10 hours postprandial).

Structure (SMILES) | EPA incorporation in red blood cells, effect of lipase inhibitor ([1]; rats fed fish oil with vs without XENICAL (ORLISTAT), day 7, FIG. 2) | chronic effect: accretion of EPA in erythrocytes after 21 days ([2]; humans, with XENICAL (ORLISTAT), in comparison to fish oil and XENICAL, p=0.0001, FIG. 5) | chronic effect: accretion of EPA in plasma after 21 days ([2]; humans, with XENICAL (ORLISTAT), relative to fish oil and XENICAL, p=0.0003, FIG. 6) | carrier for EPA compared with fish oil (TAG) ([2]; obese subjects treated with XENICAL (ORLISTAT)) | incorporation of LC-PUFAs in tissue ([1]; rats, conditions of lipid maldigestion or malabsorption) | level of EPA incorporated in red blood cells vs fish oil group (without XENICAL) ([1]; rats, with XENICAL (ORLISTAT), day 7, FIG. 2) | level of EPA incorporated in red blood cells vs fish oil + XENICAL (ORLISTAT) group ([1]; rats, with XENICAL (ORLISTAT), day 7, all P values lower than 0.05, FIG. 2)
CCCCCCCCCCC[C@@H](C[C@@H]1OC(=O)[C@H]1CCCCCC)OC(=O)[C@H](CC(C)C)NC=O [XENICAL® (ORLISTAT), tetrahydrolipstatin, reference compound] | decreases EPA incorporation in red blood cells |  |  |  |  |  | 
CC/C=C\C/C=C\C/C=C\C/C=C\C/C=C\CCCC(=O)OCC(O)CO (stereo not shown) [sn-1(3) MAG that contained EPA, sn-1(3)-monoeicosapentaenoylglycerol] |  | statistically significant | statistically significant | better carrier for EPA than fish oil (TAG) | the incorporation in tissue is improved | even higher than the fish oil group | statistically higher
